Reference: PubChem BioAssay AID2060513 (Molecular Pharmacology Branch, DTP, NCI, 2025)

System: 299254-011-R-J1-PDC complex spheroids viability
Experiment: Anticancer human tumor 299254-011-R-J1-PDC patient-derived melanoma cell line growth inhibition [GQUAD]
Conditions: for IC50: curve of first compound; for viability, T/C: stronger effect = lower value; active = viability on the fitted dose curve at most 10% of control; inactive = the rest
Summary of the method: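 Multi-cell-type spheroids of tumor cells with HUVEC and mesenchymal stem cells, treated with drug combinations. Concentrations descend in half-log steps from near clinical Cmax, or from 10 microM where Cmax is unknown; viability read-out.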

[1] = second compound 0.0316 µM, first compound 0.0316 µM
[2] = second compound 0.0316 µM, first compound 0.1 µM
[3] = second compound 0.0316 µM, first compound 0.316 µM
[4] = second compound 0.0316 µM, first compound 1 µM
[5] = second compound 0.0316 µM, first compound 3.16 µM
[6] = second compound 0.0316 µM, first compound 10 µM
[7] = second compound 0.1 µM, first compound 0.0316 µM
[8] = second compound 0.1 µM, first compound 0.1 µM
[9] = second compound 0.1 µM, first compound 0.316 µM
[10] = second compound 0.1 µM, first compound 1 µM
[11] = second compound 0.1 µM, first compound 3.16 µM
[12] = second compound 0.1 µM, first compound 10 µM
[13] = second compound 0.316 µM, first compound 0.0316 µM
[14] = second compound 0.316 µM, first compound 0.1 µM
[15] = second compound 0.316 µM, first compound 0.316 µM
[16] = second compound 0.316 µM, first compound 1 µM
[17] = second compound 0.316 µM, first compound 3.16 µM
[18] = second compound 0.316 µM, first compound 10 µM
[19] = second compound 1 µM, first compound 0.0316 µM
[20] = second compound 1 µM, first compound 0.1 µM
[21] = second compound 1 µM, first compound 0.316 µM
[22] = second compound 1 µM, first compound 1 µM
[23] = second compound 1 µM, first compound 3.16 µM
[24] = second compound 1 µM, first compound 10 µM
[25] = second compound 3.16 µM, first compound 0.0316 µM
[26] = second compound 3.16 µM, first compound 0.1 µM
[27] = second compound 3.16 µM, first compound 0.316 µM
[28] = second compound 3.16 µM, first compound 1 µM
[29] = second compound 3.16 µM, first compound 3.16 µM
[30] = second compound 3.16 µM, first compound 10 µM
[31] = second compound 10 µM, first compound 0.0316 µM
[32] = second compound 10 µM, first compound 0.1 µM
[33] = second compound 10 µM, first compound 0.316 µM
[34] = second compound 10 µM, first compound 1 µM
[35] = second compound 10 µM, first compound 3.16 µM
[36] = second compound 10 µM, first compound 10 µM
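Also: spheroids exposed to the agents for seven days before readout.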
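For viability, T/C in this document: percent viability relative to DMSO vehicle control wells = 100%.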

COc1cccc2c1C(=O)c1c(O)c3c(c(O)c1C2=O)CC(O)(C(=O)CO)CC3OC1CC(N)C(O)C(C)O1 (stereo not drawn) + Cc1[nH]c2ccc(F)cc2c1-c1nc2c3cccnc3c3ncccc3c2[nH]1
2.56 µM: IC50 (second compound 10 µM)
inactive: viability, T/C [1] 100% | viability, T/C [2] 91.5% | viability, T/C [3] 82.2% | viability, T/C [4] 90.5% | viability, T/C [5] 62.4% | viability, T/C [6] 25.7% | viability, T/C [7] 91.4% | viability, T/C [8] 91.7% | viability, T/C [9] 88% | viability, T/C [10] 66.4% | viability, T/C [11] 64.7% | viability, T/C [12] 23.8% | viability, T/C [13] 94.2% | viability, T/C [14] 92.1% | viability, T/C [15] 93.3% | viability, T/C [16] 94.7% | viability, T/C [17] 74.4% | viability, T/C [18] 20.4% | viability, T/C [19] 88.9% | viability, T/C [20] 86.9% | viability, T/C [21] 94.2% | viability, T/C [22] 95.3% | viability, T/C [23] 69.1% | viability, T/C [24] 19.3% | viability, T/C [25] 89.9% | viability, T/C [26] 91.7% | viability, T/C [27] 90.1% | viability, T/C [28] 70.3% | viability, T/C [29] 50.2% | viability, T/C [30] 13.4% | viability, T/C [31] 90.2% | viability, T/C [32] 91.3% | viability, T/C [33] 82.6% | viability, T/C [34] 83.3% | viability, T/C [35] 42.6% | viability, T/C [36] 11.9%
2.99 µM: IC50 (second compound 3.16 µM)
4.67 µM: IC50 (second compound 0.0316 µM)
4.19 µM: IC50 (second compound 0.1 µM)
4.92 µM: IC50 (second compound 1 µM)
5.32 µM: IC50 (second compound 0.316 µM)

Cc1cccc(N(C)C(=O)C2C(O)CCN2c2nc(C)cc(C(F)(F)F)c2C#N)c1 (stereo not drawn) + Cc1[nH]c2ccc(F)cc2c1-c1nc2c3cccnc3c3ncccc3c2[nH]1
inactive: viability, T/C [1] 104% | viability, T/C [2] 104% | viability, T/C [3] 112% | viability, T/C [4] 90% | viability, T/C [5] 82.1% | viability, T/C [6] 90.6% | viability, T/C [7] 86.7% | viability, T/C [8] 95.2% | viability, T/C [9] 92.1% | viability, T/C [10] 77.5% | viability, T/C [11] 90.4% | viability, T/C [12] 112% | viability, T/C [13] 114% | viability, T/C [14] 114% | viability, T/C [15] 100% | viability, T/C [16] 88.5% | viability, T/C [17] 137% | viability, T/C [18] 82.8% | viability, T/C [19] 109% | viability, T/C [20] 85.7% | viability, T/C [21] 83.9% | viability, T/C [22] 109% | viability, T/C [23] 103% | viability, T/C [24] 102% | viability, T/C [25] 91.3% | viability, T/C [26] 122% | viability, T/C [27] 91.4% | viability, T/C [28] 98.6% | viability, T/C [29] 116% | viability, T/C [30] 94.5% | viability, T/C [31] 93.8% | viability, T/C [32] 116% | viability, T/C [33] 103% | viability, T/C [34] 89.5% | viability, T/C [35] 84.9% | viability, T/C [36] 84.1%
> 10 µM: IC50 (second compound 0.0316 µM) | IC50 (second compound 0.1 µM) | IC50 (second compound 0.316 µM) | IC50 (second compound 1 µM) | IC50 (second compound 3.16 µM) | IC50 (second compound 10 µM)

Cn1ncnc1[C@H]1c2n[nH]c(=O)c3cc(F)cc(c23)N[C@@H]1c1ccc(F)cc1 + Cc1[nH]c2ccc(F)cc2c1-c1nc2c3cccnc3c3ncccc3c2[nH]1
> 0.316 µM: IC50 (second compound 0.0316 µM) | IC50 (second compound 0.1 µM) | IC50 (second compound 0.316 µM) | IC50 (second compound 1 µM) | IC50 (second compound 3.16 µM) | IC50 (second compound 10 µM)
inactive: viability, T/C (second compound 0.0316 µM, first compound 0.000999 µM) 93.7% | viability, T/C (second compound 0.0316 µM, first compound 0.00316 µM) 105% | viability, T/C (second compound 0.0316 µM, first compound 0.00999 µM) 117% | viability, T/C [1] 90.2% | viability, T/C (second compound 0.0316 µM, first compound 0.0999 µM) 88.3% | viability, T/C [3] 101% | viability, T/C (second compound 0.1 µM, first compound 0.000999 µM) 101% | viability, T/C (second compound 0.1 µM, first compound 0.00316 µM) 103% | viability, T/C (second compound 0.1 µM, first compound 0.00999 µM) 88.1% | viability, T/C [7] 92.7% | viability, T/C (second compound 0.1 µM, first compound 0.0999 µM) 118% | viability, T/C [9] 96.2% | viability, T/C (second compound 0.316 µM, first compound 0.000999 µM) 92.8% | viability, T/C (second compound 0.316 µM, first compound 0.00316 µM) 108% | viability, T/C (second compound 0.316 µM, first compound 0.00999 µM) 113% | viability, T/C [13] 94% | viability, T/C (second compound 0.316 µM, first compound 0.0999 µM) 98.2% | viability, T/C [15] 105% | viability, T/C (second compound 1 µM, first compound 0.000999 µM) 86.7% | viability, T/C (second compound 1 µM, first compound 0.00316 µM) 105% | viability, T/C (second compound 1 µM, first compound 0.00999 µM) 87.1% | viability, T/C [19] 112% | viability, T/C (second compound 1 µM, first compound 0.0999 µM) 112% | viability, T/C [21] 102% | viability, T/C (second compound 3.16 µM, first compound 0.000999 µM) 95.3% | viability, T/C (second compound 3.16 µM, first compound 0.00316 µM) 88.2% | viability, T/C (second compound 3.16 µM, first compound 0.00999 µM) 96.3% | viability, T/C [25] 84.6% | viability, T/C (second compound 3.16 µM, first compound 0.0999 µM) 88.6% | viability, T/C [27] 118% | viability, T/C (second compound 10 µM, first compound 0.000999 µM) 96.7% | viability, T/C (second compound 10 µM, first compound 0.00316 µM) 111% | viability, T/C (second compound 10 µM, first compound 0.00999 µM) 84% | viability, T/C [31] 95.7% | viability, T/C (second compound 10 µM, first compound 0.0999 µM) 108% | viability, T/C [33] 99.5%

O=c1[nH]cc(F)c(=O)[nH]1 + Cc1[nH]c2ccc(F)cc2c1-c1nc2c3cccnc3c3ncccc3c2[nH]1
inactive: viability, T/C [1] 131% | viability, T/C [2] 114% | viability, T/C [3] 113% | viability, T/C [4] 121% | viability, T/C [5] 116% | viability, T/C [6] 125% | viability, T/C [7] 120% | viability, T/C [8] 105% | viability, T/C [9] 110% | viability, T/C [10] 123% | viability, T/C [11] 98.3% | viability, T/C [12] 123% | viability, T/C [13] 104% | viability, T/C [14] 99.6% | viability, T/C [15] 119% | viability, T/C [16] 100% | viability, T/C [17] 97.5% | viability, T/C [18] 97.8% | viability, T/C [19] 88.3% | viability, T/C [20] 98.6% | viability, T/C [21] 106% | viability, T/C [22] 108% | viability, T/C [23] 116% | viability, T/C [24] 106% | viability, T/C [25] 99.3% | viability, T/C [26] 107% | viability, T/C [27] 96% | viability, T/C [28] 113% | viability, T/C [29] 90.4% | viability, T/C [30] 107% | viability, T/C [31] 96.4% | viability, T/C [32] 96.5% | viability, T/C [33] 92.1% | viability, T/C [34] 102% | viability, T/C [35] 98.9% | viability, T/C [36] 88%
> 10 µM: IC50 (second compound 0.0316 µM) | IC50 (second compound 0.1 µM) | IC50 (second compound 0.316 µM) | IC50 (second compound 1 µM) | IC50 (second compound 3.16 µM) | IC50 (second compound 10 µM)
